Results on five compounds are retold here after patent US20250019381A1, “PROCESS FOR THE […] OF 6-((3S,4S)-4-METHYL-1-(PYRIMIDIN-2-[…])PYRROLIDIN-3-YL)-3-(TETRAHYDROPYRAN-4-YL-7H-IMIDAZO[1,5-a]PYRAZIN-8-ONE” (Cardurion Pharmaceuticals, Inc., priority 2017, published 2025).

By IC50 is commonly meant the concentration needed to halve the response being measured. Read a high IC50 as weaker potency.

The nature of data set [1]: Blood Brain Barrier penetration: plasma and brain concentration. The format is in vivo.
A further data set has as its system PDE1. The data set is described as follows: PDE1 inhibition IC50. The format is biochemical.
A further data set deals with PDE9 (Homo sapiens (Human), UniProt O76083). It counts as biochemical.
Data set [2] in a line: Stability study of drug substance in polyethylene/aluminum pouches. The format is physicochemical. Particulars: solid, ambient temperature and 40° C.-45° C. (no humidity control), 3-month period. On the procedure:
A stability study has been completed on Compound P3.1. Samples of Compound P3.1 were aliquoted into double-walled polyethylene pouches, which were tied off and then heat-scaled in an aluminum pouch. Samples were stored at ambient temperature and at 40° C.-45° C. (no humidity control) with testing performed over a 3-month period.

The nature of data set [3]: Stability study of solution in purified water. Particulars: approximately 40 mg/mL in purified water, refrigerated and ambient, 8 days. It counts as physicochemical. The method, then: In another stability study, Compound P3.1 was dissolved at approximately 40 mg/mL of purified water and evaluated for purity over a period of 8 days. Samples were stored at both refrigerated and ambient conditions, and tested at T=0, Day 2, and Day 8.

The structures appear in SMILES notation.

Chain of PDE9 (O76083 whole entry): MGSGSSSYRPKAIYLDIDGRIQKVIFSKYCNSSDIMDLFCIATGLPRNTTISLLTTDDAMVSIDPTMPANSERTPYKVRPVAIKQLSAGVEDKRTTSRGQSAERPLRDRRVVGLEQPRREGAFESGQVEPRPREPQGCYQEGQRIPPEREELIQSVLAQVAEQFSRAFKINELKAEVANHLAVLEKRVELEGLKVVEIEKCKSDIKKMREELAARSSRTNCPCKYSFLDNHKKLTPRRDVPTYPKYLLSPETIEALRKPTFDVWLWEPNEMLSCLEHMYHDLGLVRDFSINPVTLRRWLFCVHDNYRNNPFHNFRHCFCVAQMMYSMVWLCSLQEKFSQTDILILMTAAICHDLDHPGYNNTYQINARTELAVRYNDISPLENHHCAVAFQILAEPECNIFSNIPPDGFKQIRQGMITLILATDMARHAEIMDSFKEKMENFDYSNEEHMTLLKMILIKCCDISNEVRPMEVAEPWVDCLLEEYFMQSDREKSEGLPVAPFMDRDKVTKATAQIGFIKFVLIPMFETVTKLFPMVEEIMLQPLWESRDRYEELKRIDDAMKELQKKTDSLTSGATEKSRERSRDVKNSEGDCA

`O=c1[nH]c(CN2CC(Oc3cccnc3)C2)cn2c(C3CCOCC3)ncc12` [Compound P2]: the “Brain concentration after 30 minutes” value in data set [1] (30 min) is listed as “Below”. Besides, in data set [1] (120 min), the “Brain concentration after 120 minutes” value is listed as “Below”.
Regarding `O=c1[nH]c(CN2CC(OCc3ccc(F)cc3)C2)nn2c(C3CCOCC3)ncc12` [Compound P4], in data set [1] (plasma, 120 min), the “Plasma concentration after 120 minutes” value was 120 min.: 352 ng/mL.
As for `C[C@@H]1CN(Cc2ncccn2)C[C@H]1c1nc2c(cnn2C2CCOCC2)c(=O)[nH]1` (relative stereo), half-maximal inhibition in the data set with PDE1 (IC50) required 2500 nM.
For the compound `O=c1[nH]c(CN2CC(Oc3ccncc3)C2)cn2c(-c3ccc(F)cc3)ncc12` [Compound P1], the “Brain/Plasma ratio after 30 minutes” value in data set [1] (30 min) turned out to be 0.06. Besides, in data set [1] (120 min), the “Brain/Plasma ratio after 120 minutes” value is reported as 0.08.
Take `C[C@@H]1CN(Cc2ncccn2)C[C@H]1c1cn2c(C3CCOCC3)ncc2c(=O)[nH]1` [Compound P3.1, (3S,4S)-6-(4-methyl-1-pyrimidin-2-ylmethyl-pyrrolidin-3-yl)-3-(tetrahydro-pyran-4-yl)-7H-imidazo[1,5-a]pyrazin-8-one]: the “Brain concentration after 30 minutes” value in data set [1] (30 min) is 30 min.: 67 ng/mL. Moreover, in data set [1] (120 min), the “Brain concentration after 120 minutes” value was 120 min.: 7 ng/mL. Further, the “Plasma concentration after 30 minutes” value in data set [1] (plasma, 30 min) is on record as 30 min.: 1620 ng/mL. The “Plasma concentration after 120 minutes” value in data set [1] (plasma, 120 min) was 120 min.: 226 ng/mL. In addition, the IC50 in the data set with PDE1 was 3000 nM; against PDE9 it was 10 nM. The “Changes to appearance or purity of the material on storage” value in data set [2] is recorded as “no changes to appearance or purity”. For the same compound, the “Change to purity of the compound or appearance of the solution” value in data set [3] was “No significant change”.
